US5955616A, “Pyrrolidine derivatives having phospholipase A2 inhibitory activity” (Shionogi & Co., Ltd., priority 1995, dated 1999)

Assays:
cPLA2 = target: T1, cPLA2 (Homo sapiens, UniProt P47712); test: cPLA2 Inhibitory activity (release of radiolabelled fatty acid from liposomes); format: biochemical; details: 50 mM HEPES pH 7.4, 1 mM CaCl2, 2.5 μM radio-labeled phosphatidylcholine, 15 min at 37° C; read-out: cPLA2 Inhibition Activity IC50
T1 sequence (P47712 1-749): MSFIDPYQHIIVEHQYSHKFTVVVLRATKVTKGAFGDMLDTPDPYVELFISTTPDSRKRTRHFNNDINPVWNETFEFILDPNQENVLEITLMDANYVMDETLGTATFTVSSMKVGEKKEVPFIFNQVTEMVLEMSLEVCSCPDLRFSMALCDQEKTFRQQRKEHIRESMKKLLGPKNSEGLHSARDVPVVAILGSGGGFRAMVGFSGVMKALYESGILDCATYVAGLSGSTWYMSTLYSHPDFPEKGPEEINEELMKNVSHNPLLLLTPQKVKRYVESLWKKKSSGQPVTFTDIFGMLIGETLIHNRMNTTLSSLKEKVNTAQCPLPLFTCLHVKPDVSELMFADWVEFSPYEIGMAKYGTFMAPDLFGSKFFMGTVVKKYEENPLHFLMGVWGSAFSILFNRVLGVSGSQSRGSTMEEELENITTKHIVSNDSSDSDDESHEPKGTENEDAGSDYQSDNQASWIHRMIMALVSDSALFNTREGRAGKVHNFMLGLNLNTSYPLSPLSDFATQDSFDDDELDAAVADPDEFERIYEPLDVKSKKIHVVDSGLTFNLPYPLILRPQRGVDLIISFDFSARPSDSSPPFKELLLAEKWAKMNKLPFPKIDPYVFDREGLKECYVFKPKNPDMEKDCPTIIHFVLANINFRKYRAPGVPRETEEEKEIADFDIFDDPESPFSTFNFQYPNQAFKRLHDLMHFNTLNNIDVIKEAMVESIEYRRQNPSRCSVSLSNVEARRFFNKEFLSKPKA
Description: Experiment 1 cPLA2 Inhibitory activity
The compounds of the present invention was tested for the cPLA2 inhibitory activity by a method known in a literature (R. M. Kramer, E. F. Roberts, J. Manetta and J. E. Putnam, J. Biol. Chem., 268(8), 5268-5272 ([…])), as outlined below.
As a substrate, liposomes which contain 1-palmitoyl-2-[^14 C]-arachidonoyl-sn-glycero-3-phosphocholine and sn-1,2-dioleoylglycerol at the ratio of 2:1 and have treated ultrasonically were used. The substrate was added to a 50 mM HEPES buffer (pH 7.4) (200 μl) containing 1 mM CaCl2, 2 mM dithiothreitol, 150 mM NaCl, 0.1 mg/ml BSA so as to make the concentration of radio-labeled phosphatidylcholine 2.5 μM. To the solution was added a compound of the present invention in DMSO (10 μl) to obtain reaction solutions each containing the test compound at 250 μM, 50 μM, 10 μm, 2 μM, and 0.4 μM. The reaction was allowed to start by adding an enzyme (cPLA2) (4 ng) and continued for 15 min at 37° C.
The amount of fatty acids released by the reaction was measured on a liquid scintillation counter. Control was obtained by conducting the experiment in the same manner except that a compound of the present invention was not added. The inhibitory activity was expressed as percent (%) to the control value, which was used for the calculation of the concentration required for 50% inhibition (IC50, μM).

[1] = test system: Prostaglandin E2 production in human fibroblasts; test: Inhibition of Production of Prostaglandin E2 in Human Fibroblasts (IL-1 stimulated); format: cell-based; details: Fibroblast, stimulation with IL-1, read-out: Inhibitory activity Against the Production of Prostaglandin E2 in Human Fibroblasts IC50
Description: Experiment 2 Inhibition of Production of Prostaglandin E2 in Human Fibroblasts
From this viewpoint, the compounds of the present invention were tested for the effect on the production of prostaglandin E2 by human fibroblasts under the stimulation with IL-1 according to the method of J. M. Dayer et al (CACHECTIN/TUMOR NECROSIS FACTOR STIMULATES COLLAGENASE AND PROSTAGLANDIN E2 PRODUCTION BY HUMAN SYNOVIAL CELLS AND DERMAL FIBROBLASTS; J. M. Dayer, B. Beutlerm and A. Cerami, J. Exp. Med., 162,2163-2168, 1985).

Structure (SMILES)	IC50 (cPLA2) [µM]	IC50 [1] [µM]
O=C1NC(=S)S/C1=C\c1cn(NC(=O)[C@@H]2C[C@H](SCc3ccccc3)CN2C(=O)c2ccccc2)c2ccccc12 [Compound A-60]	6.1	1.3
O=C1NC(=O)C(=Cc2ccc(NC(=O)[C@@H]3C[C@H](SC(c4ccccc4)c4ccccc4)CN3C(=O)c3ccccc3)cc2)S1 [Compound A-12]	1.3	1.6
O=C1NC(=S)SC1=Cc1ccc(NC(=O)[C@@H]2C[C@H](SCc3ccccc3)CN2C(=S)Nc2ccccc2)cc1 [Compound A-29]	5.9	1.2
CC(C)(C)OC(=O)N1C[C@@H](SCc2ccccc2)C[C@H]1C(=O)Nc1ccc(C=C2SC(=S)NC2=O)cc1 [Compound A-17]	6	3.2
O=C1NC(=O)/C(=C/c2ccc(C(=O)NC[C@@H]3C[C@H](SC(c4ccccc4)(c4ccccc4)c4ccccc4)CN3C(=O)CCc3ccccc3)cc2)S1 [Compound B-1]	0.82	7.5
O=C1NC(=S)S/C1=C\c1ccc(NC(=O)[C@@H]2C[C@H](SCc3ccccc3)CN2S(=O)(=O)Cc2ccc(Br)cc2)cc1 [Compound A-54]	3.4	1.1
COC(=O)c1cc(C=C2SC(=O)NC2=O)cc(NC(=O)C2CC(OC(c3ccccc3)c3ccccc3)CN2C(=O)c2ccccc2)c1 (centres unmarked) [Compound C-4]	3.2	2
O=C1NC(=O)C(=C(CO)c2ccc(NC(=O)[C@@H]3C[C@H](SCc4ccccc4)CN3S(=O)(=O)c3ccc(-c4ccccc4)cc3)cc2)S1 [Compound D-2]	7	5.7
O=C1NC(=O)C(=Cc2ccc(NC(=O)[C@@H]3C[C@H](SCc4ccccc4)CN3C(=O)c3ccccc3)cc2)S1 [Compound A-3]	5.3	2.4
O=C1NC(=O)/C(=C/c2ccc(C=CC[C@@H]3C[C@H](SC(c4ccccc4)(c4ccccc4)c4ccccc4)CN3C(=O)CCc3ccccc3)cc2)S1 [Compound E-2]	0.46	6
O=C1NC(=S)S/C1=C\c1ccc(NC(=O)[C@@H]2C[C@H](SCc3ccccc3)CN2S(=O)(=O)Cc2ccc(F)cc2)cc1 [Compound A-55]	3.4	1.1
COc1cc(CS[C@H]2C[C@@H](C(=O)Nc3ccc(/C=C4\SC(=O)NC4=O)cc3)N(S(=O)(=O)c3ccc(-c4ccccc4)cc3)C2)cc(OC)c1OC [Compound A-46]	7	1.5
CS[C@H]1C[C@@H](C(=O)Nc2ccc(C=C3SC(=O)NC3=O)cc2)N(C(=O)Cc2ccc(Br)cc2)C1 [Compound A-25]	18	8
N#CCCCOc1ccc(CS[C@H]2C[C@@H](C(=O)Nc3ccc(/C=C4\SC(=S)NC4=O)cc3)N(S(=O)(=O)Cc3ccc(Br)cc3)C2)cc1 [Compound A-56]	1.9	0.93
O=C1NC(=O)C(=Cc2ccc(NC(=O)[C@@H]3C[C@H](SCc4ccc(C(F)(F)F)cc4)CN3C(=O)c3ccccc3)cc2)S1 [Compound A-7]	5.3	4.5
CS[C@H]1C[C@@H](C(=O)Nc2ccc(/C=C3\SC(=S)NC3=O)cc2)N(S(=O)(=O)c2ccc(-c3ccccc3)cc2)C1 [Compound A-45]	4.8	1.5
COc1cc(CS[C@H]2C[C@@H](C(=O)Nc3ccc(C=C4SC(=O)NC4=O)cc3)N(C(=O)c3ccccc3)C2)cc(OC)c1OC [Compound A-9]	5.1	3
CS[C@H]1C[C@@H](C(=O)Nc2ccc(C=C3SC(=S)NC3=O)cc2)N(C(=O)c2ccc(-c3ccccc3)cc2)C1 [Compound A-21]	18	1
CC(C)S[C@H]1C[C@@H](C(=O)Nc2ccc(C=C3SC(=S)NC3=O)cc2)N(C(=O)OC(C)(C)C)C1 [Compound A-16]	22	2.9

Structure (SMILES)	IC50 (cPLA2) [µM]	IC50 [1] [µM]
O=C1NC(=S)S/C1=C\c1ccc(NC(=O)[C@@H]2C[C@H](SCc3ccccc3)CN2S(=O)(=O)c2ccc(-c3ccccc3)cc2)cc1 [Compound A-43]	6.8	8.8
CS[C@H]1C[C@@H](C(=O)Nc2ccccc2/C=C2\SC(=O)NC2=O)N(S(=O)(=O)c2ccc(-c3ccccc3)cc2)C1 [Compound C-1]	30	6.1
CC(C)(C)OC(=O)N1C[C@@H](SC(c2ccccc2)(c2ccccc2)c2ccccc2)C[C@H]1C(=O)Nc1ccc(/C=C2\OC(=S)NC2=O)cc1 [Compound A-62]	4.3	2.2
O=C1NC(=O)C(=Cc2ccc(NC(=O)[C@@H]3C[C@H](SCc4ccc5ccccc5c4)CN3C(=O)c3ccccc3)cc2)S1 [Compound A-5]	3.6	7
O=C1NC(=S)S/C1=C\c1ccc(NC(=O)[C@@H]2C[C@H](SCc3ccccc3)CN2S(=O)(=O)c2c(Cl)cccc2Cl)cc1 [Compound A-41]	3.4	14
N#CC(=S)Nc1ccc(C(=O)N2C[C@@H](OC(c3ccccc3)c3ccccc3)C[C@H]2CNC(=O)c2ccc(/C=C3\SC(=O)NC3=O)cc2)cc1 [Compound H-11]	4.3	8.5
CC(=O)Nc1c(Cl)cc(S(=O)(=O)N2C[C@@H](SCc3ccccc3)C[C@H]2C(=O)Nc2ccc(/C=C3\SC(=S)NC3=O)cc2)cc1Cl [Compound A-37]	1.6	6.9
COC(=O)CCc1cc(C=C2SC(=O)NC2=O)cc(NC(=O)C2CC(OC(c3ccccc3)c3ccccc3)CN2C(=O)c2ccccc2)c1 (centres unmarked) [Compound C-5]	9.8	1.2
COC(=O)c1ccc(CS[C@H]2C[C@@H](CNC(=O)c3ccc(/C=C4\SC(=S)NC4=O)cc3)N(C(=O)c3ccccc3)C2)cc1 [Compound B-5]	2.2	2
CS[C@H]1C[C@@H](C(=O)Nc2ccc(C=C3SC(=O)NC3=O)cc2)N(C(=O)c2ccc(-c3ccccc3)cc2)C1 [Compound A-20]	22	0.3
O=C1NC(=O)/C(=C/c2ccc(C(=O)NC[C@@H]3C[C@H](SC(c4ccccc4)(c4ccccc4)c4ccccc4)CN3C(=O)OCc3ccc([N+](=O)[O-])cc3)cc2)S1 [Compound B-4]	2.4	4.6
CC(C)S[C@H]1C[C@@H](C(=O)Nc2ccc(C=C3SC(=S)NC3=O)cc2)N(C(=O)Cc2ccc(Br)cc2)C1 [Compound A-27]	5.1	2.6
O=C1NC(=O)C(=Cc2ccc(NC(=O)[C@@H]3C[C@H](SCc4ccc(-c5ccccc5)cc4)CN3C(=O)c3ccccc3)cc2)S1 [Compound A-6]	3.3	8.2
NC(=O)c1ccc(CS[C@H]2C[C@@H](CNC(=O)c3ccc(/C=C4\SC(=S)NC4=O)cc3)N(C(=O)c3ccccc3)C2)cc1 [Compound B-6]	31	4.7
O=C1NC(=O)/C(=C/c2ccc(C(=O)NC[C@@H]3C[C@H](OC(c4ccccc4)c4ccccc4)CN3C(=O)c3ccc(CN4CCCC4=O)cc3)cc2)S1 [Compound H-10]	10	2.4
CS[C@H]1C[C@@H](C(=O)Nc2ccc(C=C3SC(=S)NC3=O)cc2)N(C(=O)Cc2ccc(Br)cc2)C1 [Compound A-26]	2.8	1.8
O=C1NC(=O)/C(=C/c2ccc(C(=O)NC[C@@H]3C[C@H](OCc4ccc(F)cc4F)CN3C(=O)CCCCCCC3=CC(=O)c4ccccc4C3=O)cc2)S1 [Compound H-18]	11	1.5
CC(=O)Nc1ccc(S(=O)(=O)N2C[C@@H](SCc3ccccc3)C[C@H]2C(=O)Nc2ccc(/C=C3\SC(=S)NC3=O)cc2)cc1 [Compound A-38]	6.4	4.9
